The NIST ThermoML archive (doi:10.1016/j.jct.2019.02.011)
Numbers after ± are expanded uncertainties.

Assay: xn = mol fraction of the nth substance listed
Details: 293.15 K, Liquid, Vibrating tube method

COC(=O)OC [dimethyl carbonate] + CCO
mass density [kg/m3]
Details	10000 kPa	15000 kPa	20000 kPa	25000 kPa	30000 kPa	35000 kPa
x1 = 0.0252	–	811.64 ± 1.4	815.31 ± 1.4	819.03 ± 1.4	822.43 ± 1.4	825.77 ± 1.4
x1 = 0.0506	–	821.2 ± 1.4	824.93 ± 1.4	828.7 ± 1.4	832.16 ± 1.4	835.5 ± 1.4
x1 = 0.0757	–	830.53 ± 1.4	834.27 ± 1.4	838.04 ± 1.4	841.5 ± 1.4	844.9 ± 1.4
x1 = 0.1003	–	839.43 ± 1.4	843.17 ± 1.4	846.95 ± 1.4	850.46 ± 1.4	853.86 ± 1.4
x1 = 0.1508	–	857.39 ± 1.4	861.19 ± 1.4	864.97 ± 1.4	868.5 ± 1.4	871.96 ± 1.4
x1 = 0.2	–	874.34 ± 1.4	878.21 ± 1.4	882.03 ± 1.4	885.62 ± 1.4	889.09 ± 1.4
x1 = 0.2547	888.37 ± 1.4	892.5 ± 1.4	896.38 ± 1.4	900.3 ± 1.4	903.95 ± 1.4	907.43 ± 1.4
x1 = 0.3002	903.11 ± 1.4	907.24 ± 1.4	911.13 ± 1.4	915.06 ± 1.4	918.71 ± 1.4	922.25 ± 1.4
x1 = 0.3498	918.65 ± 1.4	922.78 ± 1.4	926.73 ± 1.4	930.66 ± 1.4	934.33 ± 1.5	937.83 ± 1.5
x1 = 0.4	933.81 ± 1.4	937.95 ± 1.4	941.91 ± 1.5	945.85 ± 1.5	949.52 ± 1.5	953.08 ± 1.5
x1 = 0.449	948.11 ± 1.5	952.25 ± 1.5	956.22 ± 1.5	960.16 ± 1.5	963.84 ± 1.5	967.41 ± 1.5
x1 = 0.4996	962.37 ± 1.5	966.52 ± 1.5	970.5 ± 1.5	974.44 ± 1.5	978.13 ± 1.5	981.71 ± 1.5
x1 = 0.5507	976.3 ± 1.5	980.45 ± 1.5	984.45 ± 1.5	988.38 ± 1.5	992.09 ± 1.5	995.67 ± 1.5
x1 = 0.6005	989.41 ± 1.5	993.51 ± 1.5	997.52 ± 1.5	1001.46 ± 1.5	1005.17 ± 1.5	1008.76 ± 1.5
x1 = 0.6455	1000.79 ± 1.5	1004.95 ± 1.5	1008.96 ± 1.5	1012.9 ± 1.5	1016.62 ± 1.5	1020.22 ± 1.5
x1 = 0.6931	1012.44 ± 1.5	1016.6 ± 1.5	1020.62 ± 1.5	1024.56 ± 1.5	1028.29 ± 1.5	1031.89 ± 1.5
x1 = 0.7502	1025.93 ± 1.5	1030.04 ± 1.5	1034.07 ± 1.5	1038.07 ± 1.5	1041.8 ± 1.5	1045.41 ± 1.5
x1 = 0.8009	1037.44 ± 1.5	1041.56 ± 1.5	1045.6 ± 1.5	1049.6 ± 1.5	1053.34 ± 1.6	1056.96 ± 1.6
x1 = 0.8505	1048.32 ± 1.5	1052.45 ± 1.5	1056.49 ± 1.6	1060.49 ± 1.6	1064.24 ± 1.6	1067.85 ± 1.6
x1 = 0.9008	1058.94 ± 1.6	1063.09 ± 1.6	1067.15 ± 1.6	1071.17 ± 1.6	1074.9 ± 1.6	1078.5 ± 1.6
x1 = 0.9255	1064.04 ± 1.6	1068.18 ± 1.6	1072.28 ± 1.6	1076.27 ± 1.6	1080.01 ± 1.6	1083.62 ± 1.6
x1 = 0.9477	1068.54 ± 1.6	1072.7 ± 1.6	1076.81 ± 1.6	1080.81 ± 1.6	1084.52 ± 1.6	–
x1 = 0.9735	1073.72 ± 1.6	1077.83 ± 1.6	1081.94 ± 1.6	1085.94 ± 1.6	1089.66 ± 1.6	–
x1 = 1	1078.93 ± 0.58	1083.01 ± 0.59	1087.08 ± 0.6	1091.03 ± 0.61	1094.75 ± 0.63	–
